Results as given in BindingDB's records for patent US20250115607 (Hoffmann-La Roche, 2025).

Tests used:
Test in all cases: Phosphorylation Assay SIK1-3
[1] = target: Serine/threonine-protein kinase SIK3 (Homo sapiens, UniProt Q9Y2K2)
Method: (§1) In the presence of SIK2 (resp. SIK1 or SIK3) and ATP the CHK-peptide ([…] with C-terminal arginine amide modification) were phosphorylated at one of the four feasible serine's. Only one phosphorylation is observed under the assay conditions. 60 nl of each compound dilution series (12 point; dilution factor 3, generally 30 μM to 170 pM) in DMSO were transferred by acoustic dispensing to the assay plate and 30 minutes pre-incubated (ambient temperature) after the addition of 5 μl SIK1 (5 nM) resp. 5 μl SIK2 (0.5 nM) or 7 μl SIK3 (1.5 nM) in assay-buffer (12.5 mM HEPES (pH 7.0), 10 mM magnesium acetate, 0.005% BSA). 10 μM CHK-peptide solution and 5 μl of 100 μM ATP for SIK1 & SIK2 resp. 3 μl for SIK3 in assay-buffer were added and incubated ambient for 45 minutes. 40 μl of 0.125% formic acid in water were added to quench the reaction. RapidFire (RF) Mass Spectrometry was utilized for data generation as described below. The multiple charged species (3-5 charges) for the phosphorylated and non-phosphorylated form measured by MRM (Multiple Reaction Monitoring; API5000 or 6500+) or EIC (Extracted Ion Current; QToF) were summed up and the ratio calculated (sum phosphorylated species/sum all species) for data evaluation. Normalization was performed by Genedata software based on the non-inhibition control DMSO and the commercially available STK inhibitor @1 μM YKL-05-099 (CAS number 1936529-65-5).

[2] = target: Serine/threonine-protein kinase SIK1 (Homo sapiens, UniProt P57059)
Serine/threonine-protein kinase SIK1, sequence (P57059 whole entry): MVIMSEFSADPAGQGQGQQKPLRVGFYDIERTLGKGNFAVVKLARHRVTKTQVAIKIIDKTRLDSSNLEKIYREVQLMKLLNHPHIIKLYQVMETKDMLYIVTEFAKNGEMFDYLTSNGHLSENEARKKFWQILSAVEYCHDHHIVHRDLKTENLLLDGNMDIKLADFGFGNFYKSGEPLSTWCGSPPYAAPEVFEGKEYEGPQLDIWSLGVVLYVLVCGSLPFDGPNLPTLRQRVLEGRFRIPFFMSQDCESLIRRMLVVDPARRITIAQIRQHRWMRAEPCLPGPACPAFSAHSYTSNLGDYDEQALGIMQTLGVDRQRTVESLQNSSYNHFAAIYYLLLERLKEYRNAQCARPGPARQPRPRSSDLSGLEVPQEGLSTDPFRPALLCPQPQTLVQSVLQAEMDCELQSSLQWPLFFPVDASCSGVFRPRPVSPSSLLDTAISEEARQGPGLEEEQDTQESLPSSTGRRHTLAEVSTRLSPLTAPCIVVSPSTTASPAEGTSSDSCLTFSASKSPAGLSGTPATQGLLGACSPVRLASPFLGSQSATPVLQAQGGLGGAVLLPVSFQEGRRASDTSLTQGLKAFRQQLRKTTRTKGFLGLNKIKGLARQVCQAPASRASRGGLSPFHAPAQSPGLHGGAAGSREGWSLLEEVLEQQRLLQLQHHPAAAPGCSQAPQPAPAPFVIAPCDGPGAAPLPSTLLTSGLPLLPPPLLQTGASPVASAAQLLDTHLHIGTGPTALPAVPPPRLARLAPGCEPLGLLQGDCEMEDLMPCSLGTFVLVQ
Method: as §1

[3] = target: Serine/threonine-protein kinase SIK2 (Homo sapiens, UniProt Q9H0K1)
Serine/threonine-protein kinase SIK2, sequence (Q9H0K1 whole entry): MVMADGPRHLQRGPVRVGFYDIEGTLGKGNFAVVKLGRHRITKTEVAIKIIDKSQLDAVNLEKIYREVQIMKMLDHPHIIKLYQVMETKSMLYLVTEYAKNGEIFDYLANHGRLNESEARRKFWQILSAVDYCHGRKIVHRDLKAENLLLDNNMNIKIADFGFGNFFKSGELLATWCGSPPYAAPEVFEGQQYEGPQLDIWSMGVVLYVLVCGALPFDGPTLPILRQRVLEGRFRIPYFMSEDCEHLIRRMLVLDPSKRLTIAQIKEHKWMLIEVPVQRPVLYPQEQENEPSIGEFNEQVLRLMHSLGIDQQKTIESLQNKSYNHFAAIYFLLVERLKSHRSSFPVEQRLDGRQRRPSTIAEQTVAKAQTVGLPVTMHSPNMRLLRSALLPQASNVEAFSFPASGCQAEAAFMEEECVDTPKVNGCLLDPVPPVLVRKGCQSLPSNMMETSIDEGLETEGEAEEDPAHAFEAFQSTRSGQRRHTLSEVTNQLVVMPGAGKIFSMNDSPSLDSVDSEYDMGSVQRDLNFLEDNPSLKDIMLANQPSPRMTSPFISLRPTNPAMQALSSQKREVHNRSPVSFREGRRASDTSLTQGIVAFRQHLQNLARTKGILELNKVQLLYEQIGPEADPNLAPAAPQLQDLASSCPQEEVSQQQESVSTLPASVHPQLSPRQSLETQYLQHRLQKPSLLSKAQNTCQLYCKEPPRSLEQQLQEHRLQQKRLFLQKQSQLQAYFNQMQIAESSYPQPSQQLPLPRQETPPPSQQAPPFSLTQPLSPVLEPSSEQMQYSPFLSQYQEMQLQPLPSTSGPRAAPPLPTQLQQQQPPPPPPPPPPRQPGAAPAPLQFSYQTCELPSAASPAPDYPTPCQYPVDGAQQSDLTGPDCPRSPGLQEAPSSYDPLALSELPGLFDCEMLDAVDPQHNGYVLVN
Method: as §1

Serine/threonine-protein kinase SIK3, sequence (Q9Y2K2 whole entry): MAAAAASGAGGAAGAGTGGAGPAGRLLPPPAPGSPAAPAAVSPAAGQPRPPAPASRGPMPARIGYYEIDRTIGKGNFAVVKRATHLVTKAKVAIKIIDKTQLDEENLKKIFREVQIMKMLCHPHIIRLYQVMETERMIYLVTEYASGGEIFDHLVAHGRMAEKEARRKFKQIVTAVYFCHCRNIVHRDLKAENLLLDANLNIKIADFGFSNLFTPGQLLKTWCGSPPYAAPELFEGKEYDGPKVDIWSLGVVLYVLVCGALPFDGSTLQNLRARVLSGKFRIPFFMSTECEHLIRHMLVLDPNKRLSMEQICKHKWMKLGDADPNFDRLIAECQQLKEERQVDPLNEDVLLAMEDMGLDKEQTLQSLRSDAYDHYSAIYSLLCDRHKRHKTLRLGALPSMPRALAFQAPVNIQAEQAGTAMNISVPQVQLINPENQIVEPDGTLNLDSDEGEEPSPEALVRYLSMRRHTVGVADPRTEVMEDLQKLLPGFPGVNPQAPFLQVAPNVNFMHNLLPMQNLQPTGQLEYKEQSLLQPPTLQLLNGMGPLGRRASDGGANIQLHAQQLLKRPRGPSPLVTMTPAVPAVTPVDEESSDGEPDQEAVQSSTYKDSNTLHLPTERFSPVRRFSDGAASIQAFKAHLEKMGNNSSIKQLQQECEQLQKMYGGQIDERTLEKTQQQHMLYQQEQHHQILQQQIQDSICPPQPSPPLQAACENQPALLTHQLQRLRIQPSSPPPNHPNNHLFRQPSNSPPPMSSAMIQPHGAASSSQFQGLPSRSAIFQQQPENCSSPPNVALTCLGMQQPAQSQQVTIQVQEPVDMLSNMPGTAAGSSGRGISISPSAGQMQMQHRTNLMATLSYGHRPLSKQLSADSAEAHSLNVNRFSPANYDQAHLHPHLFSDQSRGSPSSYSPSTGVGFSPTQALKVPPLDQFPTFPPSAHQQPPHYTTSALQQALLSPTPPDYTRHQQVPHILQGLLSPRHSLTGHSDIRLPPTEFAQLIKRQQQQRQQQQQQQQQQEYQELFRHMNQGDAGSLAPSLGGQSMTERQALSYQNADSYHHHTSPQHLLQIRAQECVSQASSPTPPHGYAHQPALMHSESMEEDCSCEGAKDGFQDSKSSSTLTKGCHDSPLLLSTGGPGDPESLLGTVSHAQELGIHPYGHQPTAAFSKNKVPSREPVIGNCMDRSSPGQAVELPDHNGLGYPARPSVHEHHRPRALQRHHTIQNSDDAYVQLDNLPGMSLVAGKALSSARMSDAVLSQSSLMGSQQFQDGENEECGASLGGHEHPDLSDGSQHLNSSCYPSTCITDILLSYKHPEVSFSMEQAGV

IC50 [1]: 2060 nM | IC50 [2]: 19 µM | IC50 [3]: 687 nM
Structure (SMILES): CC(=O)c1ccc(-n2cnc3cc(N(C)c4ccc(C)nn4)ncc32)nc1-n1nc(C#N)cc1C [US20250115607, Example 5]
